Experimental data published in US11459318B2, “Pesticidally active pyrrole derivatives” (Syngenta Participations AG, priority 2017, dated 2022).

Legend:
Type in all cases: in vivo
[1] = system: Myzus persicae (Green peach aphid); experiment: Myzus persicae (Green peach aphid): Feeding/Contact activity; conditions: foliar, 144 h, application rate of 200 ppm, aphid population of mixed ages on sunflower leaf discs, assessed 6 days after infestation, read-out: control (mortality)
Procedure: Myzus persicae (Green peach aphid): Feeding/Contact activity Sunflower leaf discs were placed onto agar in a 24-well microtiter plate and sprayed with aqueous test solutions prepared from 10,000 ppm DMSO stock solutions. After drying, the leaf discs were infested with an aphid population of mixed ages. The samples were assessed for mortality 6 days after infestation.

[2] = system: Diabrotica balteata (Corn root worm); experiment: Diabrotica balteata (Corn root worm), maize sprouts sprayed, L2 larvae mortality; conditions: 96 h, application rate of 200 ppm, L2 larvae on maize sprouts, assessed 4 days after infestation, read-out: control (mortality)
Procedure: Diabrotica balteata (Corn root worm):
Maize sprouts placed onto an agar layer in 24-well microtiter plates were treated with aqueous test solutions prepared from 10,000 ppm DMSO stock solutions by spraying. After drying, the plates were infested with L2 larvae (6 to 10 per well). The samples were assessed for mortality 4 days after infestation.

[3] = system: Euschistus heros (Neotropical Brown Stink Bug); experiment: Euschistus heros (Neotropical Brown Stink Bug): Feeding/contact activity; conditions: 120 h, application rate of 200 ppm, N2 nymphs on soybean leaves, assessed 5 days after infestation, read-out: control (mortality)
Procedure: Euschistus heros (Neotropical Brown Stink Bug): Feeding/contact activity Soybean leaves on agar in 24-well microtiter plates were sprayed with aqueous test solutions prepared from 10,000 ppm DMSO stock solutions. After drying the leaves were infested with N2 nymphs. The samples were assessed for mortality 5 days after infestation.

[4] = system: Plutella xylostella (Diamond back moth); experiment: Plutella xylostella (Diamond back moth): Feeding/contact activity; conditions: 120 h, application rate of 200 ppm, L2 larvae on artificial diet, assessed 5 days after infestation, read-out: control (mortality)
Procedure: Plutella xylostella (Diamond back moth): Feeding/contact activity
24-well microtiter plates with artificial diet were treated with aqueous test solutions prepared from 10,000 ppm DMSO stock solutions by pipetting. After drying, the plates were infested with L2 larvae (10 to 15 per well). The samples were assessed for mortality 5 days after infestation.

[5] = system: Tetranychus urticae (Two-spotted spider mite); experiment: Tetranychus urticae (Two-spotted spider mite): Feeding/contact activity; conditions: foliar, 192 h, application rate of 200 ppm, mite population of mixed ages (mobile stages) on bean leaf discs, assessed 8 days after infestation, read-out: control (mortality)
Procedure: Tetranychus urticae (Two-spotted spider mite): Feeding/contact activity
Bean leaf discs on agar in 24-well microtiter plates were sprayed with aqueous test solutions prepared from 10,000 ppm DMSO stock solutions. After drying the leaf discs were infested with a mite population of mixed ages. The samples were assessed for mortality on mixed population (mobile stages) 8 days after infestation.

[6] = system: Thrips tabaci (Onion Thrips); experiment: Thrips tabaci (Onion Thrips): Feeding/Contact activity; conditions: foliar, 144 h, application rate of 200 ppm, thrips population of mixed ages on sunflower leaf discs, assessed 6 days after infestation, read-out: control (mortality)
Procedure: Thrips tabaci (Onion Thrips): Feeding/Contact activity
Sunflower leaf discs were placed on agar in 24-well microtiter plates and sprayed with aqueous test solutions prepared from 10,000 ppm DMSO stock solutions. After drying the leaf discs were infested with a thrips population of mixed ages. The samples were assessed for mortality 6 days after infestation.

[7] = system: Spodoptera littoralis (Egyptian cotton leaf worm); experiment: Spodoptera littoralis (Egyptian cotton leaf worm): Feeding/contact activity; conditions: foliar, 72 h, application rate of 200 ppm, L1 larvae on cotton leaf discs, assessed 3 days after infestation, read-out: control (mortality)
Procedure: Spodoptera littoralis (Egyptian cotton leaf worm): Feeding/contact activity Cotton leaf discs were placed onto agar in 24-well microtiter plates and sprayed with aqueous test solutions prepared from 10,000 ppm DMSO stock solutions. After drying the leaf discs were infested with five L1 larvae. The samples were assessed for mortality 3 days after infestation.

Measured: mortality at 200 ppm

Cn1c(C(F)(C(F)(F)F)C(F)(F)F)cc(Cl)c1-n1cc(-c2ccc(Cl)c(C(=O)NC3(C#N)CC3)c2)cn1 [Compound 9, 2-chloro-5-[1-[3-chloro-1-methyl-5-[1,2,2,2-tetrafluoro-1-(trifluoromethyl)ethyl]pyrrol-2-yl]pyrazol-4-yl]-N-(1-cyanocyclopropyl)benzamide]
≥ 80%: all assays above

Cn1c(C(F)(C(F)(F)F)C(F)(F)F)cc(C#N)c1-n1cc(-c2ccc(Cl)c(C(=O)NC3(C#N)CC3)c2)cn1 [Compound 10, 2-chloro-N-(1-cyanocyclopropyl)-5-[1-[3-cyano-1-methyl-5-[1,2,2,2-tetrafluoro-1-(trifluoromethyl)ethyl]pyrrol-2-yl]pyrazol-4-yl]benzamide]
≥ 80%: all assays above

N#CC1(NC(=O)c2cc(-c3cnn(-c4c(Br)cc(C(F)(C(F)(F)F)C(F)(F)F)n4CF)c3)ccc2Cl)CC1 [Compound 12, 5-[1-[3-bromo-1-(fluoromethyl)-5-[1,2,2,2-tetrafluoro-1-(trifluoromethyl)ethyl]pyrrol-2-yl]pyrazol-4-yl]-2-chloro-N-(1-cyanocyclopropyl)benzamide]
≥ 80%: all assays above

CCN(C(=O)c1cc(-c2cnn(-c3c(Br)cc(C(F)(C(F)(F)F)C(F)(F)F)n3C)c2)ccc1Cl)C1(C#N)CC1 [Compound 20, 5-[1-[3-bromo-1-methyl-5-[1,2,2,2-tetrafluoro-1-(trifluoromethyl)ethyl]pyrrol-2-yl]pyrazol-4-yl]-2-chloro-N-(1-cyanocyclopropyl)-N-ethyl-benzamide]
≥ 80%: all assays above

CN(C(=O)c1cc(-c2cnn(-c3c(Br)cc(C(F)(C(F)(F)F)C(F)(F)F)n3C)c2)ccc1Cl)C1(C#N)CC1 [Compound 21, 5-[1-[3-bromo-1-methyl-5-[1,2,2,2-tetrafluoro-1-(trifluoromethyl)ethyl]pyrrol-2-yl]pyrazol-4-yl]-2-chloro-N-(1-cyanocyclopropyl)-N-methyl-benzamide]
≥ 80%: all assays above

CC(C)n1c(C(F)(C(F)(F)F)C(F)(F)F)cc(Br)c1-n1cc(-c2ccc(Cl)c(C(=O)NC3(C#N)CC3)c2)cn1 [Compound 24, 5-[1-[3-bromo-1-isopropyl-5-[1,2,2,2-tetrafluoro-1-(trifluoromethyl)ethyl]pyrrol-2-yl]pyrazol-4-yl]-2-chloro-N-(1-cyanocyclopropyl)benzamide]
≥ 80%: all assays above

CC(C)(C)n1c(C(F)(C(F)(F)F)C(F)(F)F)cc(Br)c1-n1cc(-c2ccc(Cl)c(C(=O)NC3(C#N)CC3)c2)cn1 [Compound 25, 5-[1-[3-bromo-1-tert-butyl-5-[1,2,2,2-tetrafluoro-1-(trifluoromethyl)ethyl]pyrrol-2-yl]pyrazol-4-yl]-2-chloro-N-(1-cyanocyclopropyl)benzamide]
≥ 80%: all assays above

N#CC1(NC(=O)c2cc(-c3cnn(-c4c(Br)cc(C(F)(C(F)(F)F)C(F)(F)F)n4CC(F)(F)F)c3)ccc2Cl)CC1 [Compound 26, 5-[1-[3-bromo-5-[1,2,2,2-tetrafluoro-1-(trifluoromethyl)ethyl]-1-(2,2,2-trifluoroethyl)pyrrol-2-yl]pyrazol-4-yl]-2-chloro-N-(1-cyanocyclopropyl)benzamide]
≥ 80%: all assays above

Cn1c(C(F)(C(F)(F)F)C(F)(F)C(F)(F)F)cc(Br)c1-n1cc(-c2ccc(Cl)c(C(=O)NC3(C#N)CC3)c2)cn1 (centres unmarked) [Compound 27, 5-[1-[3-bromo-5-[1,2,2,3,3,3-hexafluoro-1-(trifluoromethyl)propyl]-1-methyl-pyrrol-2-yl]pyrazol-4-yl]-2-chloro-N-(1-cyanocyclopropyl)benzamide]
≥ 80%: all assays above

Cn1c(-n2cc(-c3ccc(Cl)c(C(=O)NC4(C#N)CC4)c3)cn2)ccc1C(F)(C(F)(F)F)C(F)(F)C(F)(F)F (centres unmarked) [Compound 28, 2-chloro-N-(1-cyanocyclopropyl)-5-[1-[5-[1,2,2,3,3,3-hexafluoro-1-(trifluoromethyl)propyl]-1-methyl-pyrrol-2-yl]pyrazol-4-yl]benzamide]
≥ 80%: all assays above

N#CC1(NC(=O)c2cc(-c3cnn(-c4c(Cl)cc(C(F)(C(F)(F)F)C(F)(F)F)n4CF)c3)ccc2Cl)CC1 [Compound 29, 2-chloro-5-[1-[3-chloro-1-(fluoromethyl)-5-[1,2,2,2-tetrafluoro-1-(trifluoromethyl)ethyl]pyrrol-2-yl]pyrazol-4-yl]-N-(1-cyanocyclopropyl)benzamide]
≥ 80%: all assays above
